Numbers after ± are expanded uncertainties.
Assays:
[1] = 298.15 K; 101.33 kPa; Liquid
[2] = refractive index (Na D-line) (dimensionless); conditions: 298.15 K; 101.33 kPa; Liquid; Standard Abbe refractometry

mass density [1] [kg/m3] | refractive index [2] | SMILES
797.83 ± 0.48 | 1.3938 ± 0.0005 | CC(C)CO [2-methyl-1-propanol]
866.12 ± 1.4 | 1.3876 ± 0.0006 | CC(=O)OCC(C)C [2-methylpropyl ethanoate]
1043.9 ± 0.11 | 1.3696 ± 0.0005 | CC(=O)O [acetic acid]
 | 1.3325 ± 0.0005 | O [water]
